# Source: BindingDB's records for doi:10.1016/j.ejmech.2014.06.070 (The University of Newcastle, 2014)
# Assay: Inhibition of Dynamin 1 in serum-starved human U2OS cells assessed as inhibition of clathrin-mediated […]-cojugated transferrin uptake pretreated for 30 mins by high-content imaging method
row,SMILES,IC50
1,O=C1C=C(Nc2ccc(C(=O)O)cc2)C(=O)C=C1Nc1ccc(C(=O)O)cc1,200 µM
2,O=C1C=C(Nc2cccc(C(=O)O)c2)C(=O)C=C1Nc1cccc(C(=O)O)c1,> 300 µM
3,"O=C1C=C(Nc2ccccc2C(=O)O)C(=O)C=C1Nc1ccccc1C(=O)O [2,2'-(3,6-dioxocyclohexa-1,4-diene-1,4-diyl)bis(azanediyl)dibenzoic acid]",162 µM

# Now those with a lower IC50, led by results:
row,IC50,SMILES
1,120 µM,O=C1C=C(NCc2ccccc2)C(=O)C=C1NCc1ccccc1
2,36 µM,O=C1C=C(Nc2ccc(O)cc2)C(=O)C=C1Nc1ccc(O)cc1
